# Tested on: Eschericia coli (E. coli) strain ATCC25922
# Assay: Standard microdilution assay, MIC against E. coli ATCC25922
# Type: cell-based
# Settings: Escherichia coli; E. coli strain ATCC25922, standard microdilution assay; cutoff 16 micrograms/mL; read-out: MIC E. Coli
# Protocol: The in vitro activity of the compounds of the present invention can be determined. Antimicrobial testing is typically performed to determine the minimum inhibitory concentration (MIC). Minimum inhibitory concentrations (MICs) are determined by the microdilution method in a final volume of 100 μl according to protocols outlined by The Clinical and Laboratory Standards Institute (CLSI). Performance standards for reference strains are assessed within the same experimental design to maintain quality control. See, for example, Clinical Laboratory Standards Institute: Methods for dilution antimicrobial susceptibility tests for bacteria that grow aerobically M7-A8. Approved Standard-Eighth Edition. Wayne, Pa.: CLSI; December 2008; and Clinical Laboratory Standards Institute: Performance Standards for Antimicrobial Susceptibility Testing M100-S20; Approved Standard-Twentieth Edition. Wayne, Pa.: CLSI; June 2010.
# The compounds of the present invention were tested for antimicrobial activity. The Compounds 1-582 were run against Eschericia coli (E. coli) strain ATCC25922 and Compounds 320-582 were run against Staphylococcus aureus (S. aureus) 11540 strain using a standard microdilution assay to determine minimum inhibitory concentrations (MICs). […] It will be recognized by one skilled in the art that the compounds can be assessed against other bacterial organisms and that the presentation of data for activity against Eschericia coli and Staphylococcus aureus are illustrative and in no way is intended to limit the scope of the present invention. The compounds of the present invention can be assayed against a range of other microorganisms depending upon the performance activity desired to be gathered. Furthermore, the “+” and “−” representation and the selection of a cutoff value of 16 micrograms/mL is also illustrative and in no way is intended to limit the scope of the present invention.
row,SMILES,MIC [µg/mL]
1,C[C@H](N)CCCc1cc(SC(F)(F)F)cc(-c2cc3cn(-c4ccc(CNCCC(=O)O)cc4)c(=O)nc3[nH]2)c1 [Compound 140],> 16
2,C[C@H](N)CCCc1cc(SC(F)(F)F)cc(-c2cc3cn(-c4ccc(CNCC#N)cc4)c(=O)nc3[nH]2)c1 [Compound 170],> 16
3,C[C@H](N)CCCc1cc(SC(F)(F)F)cc(-c2cc3cn(-c4ccc(CNCc5cccnc5)cc4)c(=O)nc3[nH]2)c1 [Compound 113],> 16
4,C[C@H](N)CCCc1cc(Cl)c(F)c(-c2cc3cn(-c4ccc(CNCC(=O)O)cc4)c(=O)nc3[nH]2)c1 [Compound 115],> 16
5,C[C@H](N)CCCc1cc(-c2cc3cn(-c4ccc(CN5CCCN(C(=N)N)CC5)cc4)c(=O)nc3[nH]2)cc(C(F)(F)F)c1 [Compound 52],< 16
6,O=C(O)CNCc1ccc(-n2cc3cc[nH]c3nc2=O)cc1 [Compound 114],> 16
7,C[C@H](N)CCCc1cc(Cl)c(F)c(-c2cc3cn(-c4ccc([C@H](Cn5ccnn5)NCCCNC(=N)N)cc4)c(=O)nc3[nH]2)c1 [Compound 87],< 16
8,C[C@H](N)CCCc1cc(Cl)c(F)c(-c2cc3cn(-c4ccc([C@@H](NCCCNC(=N)N)C5CC5)cc4)c(=O)nc3[nH]2)c1 [Compound 102],< 16
9,C[C@H](N)CCCc1cc(-c2cc3cn(-c4ccc([C@H](C)N[C@H](C)CCNC(=N)N)cc4)c(=O)nc3[nH]2)cc(C(F)(F)F)c1 [Compound 226],< 16
10,C[C@H](N)CCCc1cc(OC(F)(F)F)c(F)c(-c2cc3cn(-c4ccc([C@H](C)NCC[C@H](Cc5c[nH]nn5)NC(=N)N)cc4)c(=O)nc3[nH]2)c1 [Compound 269],< 16
11,N=C(N)NCCCNCc1ccc(-n2cc3cc(-c4cc(C[C@H]5C[C@H](N)CCO5)cc(OC(F)(F)F)c4)[nH]c3nc2=O)cc1 [Compound 37],< 16
12,C[C@H](NCCCNC(=N)N)c1ccc(-n2cc3cc(-c4cc(CCC[C@@H]5COC(=O)N5)cc(Cl)c4F)[nH]c3nc2=O)cc1 [Compound 296],> 16
13,C[C@H](N)CCCc1cc(Cl)c(F)c(-c2cc3cn(-c4ccc([C@H](C)N[C@@H](CCO)CCNC(=N)N)cc4)c(=O)nc3[nH]2)c1 [Compound 303],< 16
14,C[C@H](N)CCCc1cc(Cl)c(F)c(-c2cc3cn(-c4ccc([C@@H](N)CCN(C(=O)c5ccccc5)c5nccs5)cc4)c(=O)nc3[nH]2)c1 [Compound 161],> 16
15,C=CCNCCCN[C@@H](C)c1ccc(-n2cc3cc(-c4cc(CCC[C@H](C)N)cc(C(F)(F)F)c4)[nH]c3nc2=O)cc1 [Compound 216],< 16
16,C[C@H](N)CCCc1cc(SC(F)(F)F)cc(-c2cc3cn(-c4ccc(CNCc5ccc(=O)[nH]c5)cc4)c(=O)nc3[nH]2)c1 [Compound 147],> 16
17,C[C@H](N)CCCc1cc(OC(F)(F)F)c(F)c(-c2cc3cn(-c4ccc([C@H](C)NCC[C@H](CCCN)NC(=N)N)cc4)c(=O)nc3[nH]2)c1 [Compound 284],< 16
18,C[C@H](N)CCCc1cc(OC(F)(F)F)c(F)c(-c2cc3cn(-c4ccc([C@H](C)NCC[C@@H](CCO)NC(=N)N)cc4)c(=O)nc3[nH]2)c1 [Compound 248],< 16
19,CC(N)CC[C@@H](O)c1cc(-c2cc3cn(-c4ccc([C@H](C)NCCCNC(=N)N)cc4)c(=O)nc3[nH]2)cc(C(F)(F)F)c1 (stereo partly drawn) [Compound 22],< 16
20,COCC[C@H](NCCCNC(=N)N)c1ccc(-n2cc3cc(-c4cc(CCC[C@H](C)N)cc(SC(F)(F)F)c4)[nH]c3nc2=O)cc1 [Compound 30],< 16
21,CC[C@@H](N)CCNCc1ccc(-n2cc3cc(-c4cc(CCC[C@H](C)N)cc(Cl)c4F)[nH]c3nc2=O)cc1 [Compound 197],< 16
22,C[C@H](N)CCCc1cc(Cl)c(F)c(-c2cc3cn(-c4ccc([C@H](N)C(=O)NCCN)cc4)c(=O)nc3[nH]2)c1 [Compound 254],< 16
23,C[C@H](NCCCNC(=N)N)c1ccc(-n2cc3cc(-c4cc(CCC[C@@H](N)CF)cc(Cl)c4F)[nH]c3nc2=O)cc1 [Compound 135],< 16
24,C[C@H](N)CCCc1cc(OC(F)(F)F)c(F)c(-c2cc3cn(-c4ccc([C@H](N)CCCCNC(=N)N)cc4)c(=O)nc3[nH]2)c1 [Compound 234],< 16
25,C[C@H](N)CCCc1cc(OC(F)(F)F)c(F)c(-c2cc3cn(-c4ccc([C@@H](N)C(=O)NCCNC(=N)N)cc4)c(=O)nc3[nH]2)c1 [Compound 257],< 16
26,C[C@H](N)CCCc1cc(Cl)c(F)c(-c2cc3cn(-c4ccc([C@H](C)NCC[C@@H](CC#N)NC(=N)N)cc4)c(=O)nc3[nH]2)c1 [Compound 297],< 16

# More lines, now with the values ahead:
row,MIC [µg/mL],SMILES
1,< 16,C[C@H](N)CCCc1cc(Cl)c(F)c(-c2cc3cn(-c4ccc([C@H](C)NCC[C@@H](CN)NC(=N)N)cc4)c(=O)nc3[nH]2)c1 [Compound 271]
2,< 16,C[C@H](N)CCCc1cc(OC(F)(F)F)c(F)c(-c2cc3cn(-c4ccc([C@H](C)NCC[C@H](C)NC(=N)N)cc4)c(=O)nc3[nH]2)c1 [Compound 224]
3,< 16,C[C@H](N)CCCc1cc(OC(F)(F)F)c(F)c(-c2cc3cn(-c4ccc([C@H](C)N[C@H](C)CCNC(=N)N)cc4)c(=O)nc3[nH]2)c1 [Compound 233]
4,< 16,C[C@H](N)CCCc1cc(Cl)c(F)c(-c2cc3cn(-c4ccc(CNCC[C@@H](N)CO)cc4)c(=O)nc3[nH]2)c1 [Compound 167]
5,< 16,C[C@H](N)CCCc1cc(-c2cn3cc(-c4ccc([C@H](C)NCCCNC(=N)N)cc4)c(=O)nc3[nH]2)cc(C(F)(F)F)c1 [Compound 298]
6,< 16,C[C@H](N)CCCc1cc(SC(F)(F)F)cc(-c2cc3cn(-c4ccc([C@@H](CO)NCCCNC(=N)N)cc4)c(=O)nc3[nH]2)c1 [Compound 45]
7,< 16,C[C@H](N)CCCc1cc(Cl)c(F)c(-c2cn3cc(-c4ccc([C@H](C)NCCCNC(=N)N)cc4)c(=O)nc3[nH]2)c1 [Compound 302]
8,< 16,C[C@H](N)CCCc1cc(Cl)c(F)c(-c2cc3cn(-c4ccc([C@H](CO)NCCCNC(=N)N)cc4)c(=O)nc3[nH]2)c1 [Compound 103]
9,< 16,C[C@H](NCCCNC(=N)N)c1ccc(-n2cc3cc(-c4cc(CCC[C@@H](N)COC(=O)CCC(=O)O)cc(Cl)c4F)[nH]c3nc2=O)cc1 [Compound 308]
10,< 16,C[C@H](NCCCNC(=N)N)c1ccc(-n2cc3cc(-c4cc(CCC[C@H](C)NC(=O)OCc5ccccc5)cc(Cl)c4F)[nH]c3nc2=O)cc1 [Compound 67]
11,< 16,C[C@H](N)CCCc1cc(-c2cc3cn(-c4ccc([C@H](CCF)NCCCNC(=N)N)cc4)c(=O)nc3[nH]2)cc(C(F)(F)F)c1 [Compound 73]
12,< 16,C=C[C@H](N)COCc1cc(SC(F)(F)F)cc(-c2cc3cn(-c4ccc([C@H](C)NCCCNC(=N)N)cc4)c(=O)nc3[nH]2)c1 [Compound 63]
13,< 16,C[C@H](N)CCCc1cc(Cl)c(F)c(-c2cc3cn(-c4ccc([C@H](C)NCC[C@@H](C)N)cc4)c(=O)nc3[nH]2)c1 [Compound 193]
14,< 16,CSC[C@H](N)COCc1cc(SC(F)(F)F)cc(-c2cc3cn(-c4ccc([C@H](C)NCCCNC(=N)N)cc4)c(=O)nc3[nH]2)c1 [Compound 83]
15,< 16,C[C@H](N)CCCc1cc(SC(F)(F)F)cc(-c2cc3cn(-c4ccc([C@H](N)CCCCNC(=N)N)cc4)c(=O)nc3[nH]2)c1 [Compound 93]
16,< 16,C[C@H](N)CCCc1cc(Cl)c(F)c(-c2cc3cn(-c4ccc([C@H](C)NCC[C@@H](CCCO)NC(=N)N)cc4)c(=O)nc3[nH]2)c1 [Compound 239]
